Measured values published in ChEMBL document CHEMBL2331515, “Design, synthesis, and pharmacological characterization of novel endomorphin-1 analogues as extremely potent μ-opioid agonists” (J Med Chem, 2013).
Activity calls are given as the source filed them. No cut-off for these calls is given here.

Key:
Homo sapiens = organism: Homo sapiens; assay: Selectivity ratio of Ki for Myc-tagged delta-type opioid receptor (unknown origin) to Ki for FLAG-tagged mu-type opioid receptor (unknown origin)
Mu-type opioid receptor [1] = biological target: Mu-type opioid receptor (Mus musculus, UniProt P42866); assay: Agonist activity at mu-type opioid receptor in Kunming mouse vas deferens assessed as inhibition of electrically evoked muscle contraction
[2] = biological target: T1, Delta-type opioid receptor (Homo sapiens, UniProt P41143); assay: Agonist activity at Myc-tagged delta-type opioid receptor (unknown origin) expressed in HEK293 cells assessed as inhibition of forskolin-stimulated cAMP accumulation after 30 mins by liquid scintillation counting analysis; type: functional, cell-based
Mu-type opioid receptor [3] = biological target: T2, Mu-type opioid receptor (Homo sapiens, UniProt P35372); assay: Agonist activity at FLAG-tagged mu-type opioid receptor (unknown origin) expressed in HEK293 cells assessed as inhibition of forskolin-stimulated cAMP accumulation after 30 mins by liquid scintillation counting analysis; type: functional, cell-based
Mu-type opioid receptor [4] = biological target: Mu-type opioid receptor (Cavia porcellus, UniProt P97266); assay: Agonist activity at mu-type opioid receptor in guinea pig ileum assessed as inhibition of electrically evoked muscle contraction; type: tissue-based
[5] = biological target: Mu-type opioid receptor (Mus musculus) (UniProt P42866); assay: Agonist activity at mu-type opioid receptor in Kunming mouse vas deferens assessed as inhibition of electrically evoked muscle contraction in presence of naltrindole
Mu-type opioid receptor [6] = biological target: T2, Mu-type opioid receptor; assay: Displacement of [3H]DAMGO from FLAG-tagged mu-type opioid receptor (unknown origin) expressed in HEK293 cells after 60 mins by liquid scintillation counting analysis; type: cell-based
Mu-type opioid receptor [7] = biological target: T2, Mu-type opioid receptor; assay: Agonist activity at FLAG-tagged mu-type opioid receptor (unknown origin) expressed in HEK293 cells assessed as inhibition of forskolin-stimulated cAMP accumulation after 30 mins by liquid scintillation counting analysis relative to DAMGO; type: functional, cell-based
[8] = biological target: T1, Delta-type opioid receptor; assay: Displacement of [3H]DPDPE from Myc-tagged delta-type opioid receptor (unknown origin) expressed in HEK293 cells after 60 mins by liquid scintillation counting analysis; type: cell-based
Mus musculus [9] = assay: Antinociceptive activity in Kunming mouse assessed as tail withdrawal latency at 2 mg/kg, iv after 15 to 20 mins by hot water tail-flick test relative to control; type: functional, organism-based; parameters: dose 2 mg/kg
Mus musculus [10] = assay: Antinociceptive activity in Kunming mouse assessed as tail withdrawal latency at 2 mg/kg, iv by hot water tail-flick test in presence of naloxone methiodide; type: functional, organism-based; parameters: dose 2 mg/kg
Mus musculus [11] = assay: Antinociceptive activity in icv dosed Kunming mouse assessed as tail withdrawal latency by hot water tail-flick test in presence of naloxone; type: functional, organism-based
Mus musculus [12] = assay: Antinociceptive activity in Kunming mouse assessed as tail withdrawal latency at 2 mg/kg, iv by hot water tail-flick test in presence of naloxone; type: functional, organism-based; parameters: dose 2 mg/kg
[13] = biological target: Kappa-type opioid receptor (Homo sapiens, UniProt P41145); assay: Displacement of [3H]U69,593 from kappa-type opioid receptor (unknown origin) expressed in HEK293 cells after 60 mins by liquid scintillation counting analysis; type: cell-based
[14] = biological target: T1, Delta-type opioid receptor; assay: Agonist activity at Myc-tagged delta-type opioid receptor (unknown origin) expressed in HEK293 cells assessed as inhibition of forskolin-stimulated cAMP accumulation after 30 mins by liquid scintillation counting analysis relative to DAMGO; type: functional, cell-based
Mu-type opioid receptor [15] = biological target: T2, Mu-type opioid receptor; assay: Agonist activity at FLAG-tagged mu-type opioid receptor (unknown origin) expressed in HEK293 cells assessed as stimulation of ERK1/2 phosphorylation at 1 uM after 2 mins by Western blotting analysis; type: cell-based
[16] = Half life in mouse brain homogenate by RP-HPLC analysis; type: ADME, tissue-based
[17] = Selectivity ratio of Ki for kappa-type opioid receptor (unknown origin) to Ki for FLAG-tagged mu-type opioid receptor (unknown origin); settings: Homo sapiens
Mus musculus [18] = assay: Antinociceptive activity in Kunming mouse assessed as tail withdrawal latency at 0.67 to 20 nmol/kg, icv by hot water tail-flick test; type: functional, organism-based; settings: TDE = time-dependent effect
Mu-type opioid receptor [19] = biological target: T2, Mu-type opioid receptor; assay: Agonist activity at FLAG-tagged mu-type opioid receptor (unknown origin) expressed in HEK293 cells assessed as stimulation of ERK1/2 phosphorylation at 1 uM after 10 mins by Western blotting analysis; type: cell-based; settings: TDE = time-dependent effect
Mus musculus [20] = assay: Antinociceptive activity in icv dosed Kunming mouse assessed as tail withdrawal latency by hot water tail-flick test; type: functional; settings: for ED50: central

Chain of Mu-type opioid receptor (Cavia porcellus, UniProt P97266) (P97266 whole entry): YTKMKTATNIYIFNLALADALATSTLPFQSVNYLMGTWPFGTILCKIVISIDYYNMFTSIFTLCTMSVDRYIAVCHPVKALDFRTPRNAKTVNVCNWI
Chain of Kappa-type opioid receptor (P41145 whole entry): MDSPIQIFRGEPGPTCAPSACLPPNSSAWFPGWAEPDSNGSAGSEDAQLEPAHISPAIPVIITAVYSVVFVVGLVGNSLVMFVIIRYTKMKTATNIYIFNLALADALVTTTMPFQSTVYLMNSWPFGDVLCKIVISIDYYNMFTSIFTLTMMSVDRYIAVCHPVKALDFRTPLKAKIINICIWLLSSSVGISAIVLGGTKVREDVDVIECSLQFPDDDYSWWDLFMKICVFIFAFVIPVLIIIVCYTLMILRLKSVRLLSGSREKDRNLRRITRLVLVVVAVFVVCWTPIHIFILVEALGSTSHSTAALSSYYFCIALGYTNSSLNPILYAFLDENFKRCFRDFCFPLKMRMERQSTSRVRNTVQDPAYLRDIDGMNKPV
T1 sequence (P41143 whole entry): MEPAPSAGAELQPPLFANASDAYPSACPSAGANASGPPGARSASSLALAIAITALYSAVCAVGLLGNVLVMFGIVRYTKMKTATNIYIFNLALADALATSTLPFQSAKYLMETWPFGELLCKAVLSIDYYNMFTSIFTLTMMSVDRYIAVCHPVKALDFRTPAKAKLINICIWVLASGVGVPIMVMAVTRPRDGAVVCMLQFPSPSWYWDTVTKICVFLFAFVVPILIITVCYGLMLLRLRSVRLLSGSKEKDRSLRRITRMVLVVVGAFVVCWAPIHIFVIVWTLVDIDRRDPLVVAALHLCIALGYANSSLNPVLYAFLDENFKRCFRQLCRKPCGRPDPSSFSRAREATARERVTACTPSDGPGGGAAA
Chain of Mu-type opioid receptor (Mus musculus, UniProt P42866) (P42866 whole entry): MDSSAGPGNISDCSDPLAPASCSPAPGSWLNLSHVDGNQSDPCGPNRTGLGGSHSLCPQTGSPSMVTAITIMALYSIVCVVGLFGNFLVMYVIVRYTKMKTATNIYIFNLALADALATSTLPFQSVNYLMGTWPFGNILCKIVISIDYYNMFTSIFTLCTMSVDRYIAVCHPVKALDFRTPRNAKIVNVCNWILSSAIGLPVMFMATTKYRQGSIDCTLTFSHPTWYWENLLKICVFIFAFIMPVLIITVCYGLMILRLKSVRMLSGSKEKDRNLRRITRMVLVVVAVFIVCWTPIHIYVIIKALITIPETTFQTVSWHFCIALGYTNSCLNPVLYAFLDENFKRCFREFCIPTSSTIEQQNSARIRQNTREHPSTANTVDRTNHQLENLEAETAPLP
Chain of Mu-type opioid receptor (Mus musculus) (P42866 whole entry): as above
T2 sequence (P35372 whole entry): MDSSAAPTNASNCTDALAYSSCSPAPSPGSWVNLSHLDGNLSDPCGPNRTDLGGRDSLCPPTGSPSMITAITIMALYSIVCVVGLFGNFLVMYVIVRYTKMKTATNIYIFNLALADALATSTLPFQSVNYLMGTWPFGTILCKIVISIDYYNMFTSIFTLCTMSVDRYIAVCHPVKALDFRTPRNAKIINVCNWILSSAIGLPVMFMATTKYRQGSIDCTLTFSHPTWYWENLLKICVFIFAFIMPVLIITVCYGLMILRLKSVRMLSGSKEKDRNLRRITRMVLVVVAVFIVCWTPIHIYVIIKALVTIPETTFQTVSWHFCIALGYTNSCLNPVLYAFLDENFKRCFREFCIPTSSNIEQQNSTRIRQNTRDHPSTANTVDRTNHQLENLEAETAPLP

SMILES	Ratio Ki (Homo sapiens)	IC50 (Mu-type opioid receptor [1]) [nM]	Activity [2]	EC50 (Mu-type opioid receptor [3]) [nM]	inhibition (Mu-type opioid receptor [3])	IC50 (Mu-type opioid receptor [4]) [nM]	inhibition [5]	Ki (Mu-type opioid receptor [6]) [nM]	Emax (Mu-type opioid receptor [7]) [%]	Ki [8] [nM]	Activity (Mus musculus [9])	EC50 [2] [nM]	Activity (Mus musculus [10])	Activity (Mus musculus [11])	Activity (Mus musculus [12])	Ki [13] [nM]	Emax [14] [%]	Activity (Mu-type opioid receptor [15])	half-life [16] [h]	Ratio Ki [17]	also measured
C=C(C(N)=O)[C@@H](NC(=O)[C@H](Cc1c[nH]c2ccccc12)NC(=O)[C@@H]1CCN(C(=O)[C@@H](N)Cc2ccc(O)cc2)C1)c1ccccc1	9490	2.28	Dose-dependent effect	0.0397	Dose-dependent effect	1.82	Active	0.296	96.8	2810	–	–	–	–	–	–	–	–	–	–	–
C=C(C(N)=O)[C@@H](NC(=O)[C@H](Cc1c[nH]c2ccccc12)NC(=O)[C@H]1CCN(C(=O)[C@@H](N)Cc2c(C)cc(O)cc2C)C1)c1ccccc1	1380	1.53	Dose-dependent effect	0.000107	Dose-dependent effect	0.539	Active	0.0137	97.1	18.9	Active	40.4	Active	inactive	inactive	240	77.6	Active	> 10	17500	Activity (Mus musculus [18]): tde; Activity (Mu-type opioid receptor [19]): tde; Activity (Mus musculus [20]): Dose-dependent effect; ED50 (Mus musculus [20]): 0.000779 µmol/kg
C=C(C(N)=O)[C@@H](NC(=O)[C@H](Cc1c[nH]c2ccccc12)NC(=O)[C@H]1CCN(C(=O)[C@@H](N)Cc2ccc(O)cc2)C1)c1ccco1	9170	4.9	Dose-dependent effect	0.0933	Dose-dependent effect	8.12	Active	0.758	94.9	6950	–	–	–	–	–	–	–	–	–	–	–
C=C(C(=O)O)[C@@H](NC(=O)[C@H](Cc1c[nH]c2ccccc12)NC(=O)[C@@H]1CCCN1C(=O)[C@@H](N)Cc1c(C)cc(O)cc1C)c1ccco1	548	0.533	Dose-dependent effect	0.000516	Dose-dependent effect	0.767	Active	0.0405	96.5	22.2	–	48.9	–	–	–	200	76.3	–	–	4940	–
C=C(C(N)=O)[C@@H](NC(=O)[C@H](Cc1c[nH]c2ccccc12)NC(=O)[C@@H]1CCN(C(=O)[C@@H](N)Cc2c(C)cc(O)cc2C)C1)c1ccco1	5320	0.548	Dose-dependent effect	–	Dose-dependent effect	0.167	Active	0.00372	99.5	19.8	Active	89.3	Active	inactive	inactive	205	73.8	Active	> 10	55100	Activity (Mus musculus [18]): tde; Activity (Mu-type opioid receptor [19]): tde; Activity (Mus musculus [20]): Dose-dependent effect; ED50 (Mus musculus [20]): 0.000532 µmol/kg
C=C(C(N)=O)[C@@H](NC(=O)[C@H](Cc1c[nH]c2ccccc12)NC(=O)[C@H]1CCN(C(=O)[C@@H](N)Cc2ccc(O)cc2)C1)c1ccccc1	9720	4.89	Dose-dependent effect	0.057	Dose-dependent effect	3.21	Active	0.574	95.5	5580	–	–	–	–	–	–	–	–	–	–	–
CN1CC[C@]23c4c5ccc(O)c4O[C@H]2[C@@H](O)C=C[C@H]3[C@H]1C5	–	–	–	–	–	–	–	–	–	–	Active	–	Active	–	inactive	–	–	–	–	–	–
C=C(C(=O)O)[C@@H](NC(=O)[C@H](Cc1c[nH]c2ccccc12)NC(=O)[C@@H]1CCCN1C(=O)[C@@H](N)Cc1c(C)cc(O)cc1C)c1ccccc1	795	0.556	Dose-dependent effect	0.00013	Dose-dependent effect	0.467	Active	0.0322	97.2	25.6	–	51.6	–	–	–	192	77.5	–	–	5960	–
C=C(C(N)=O)[C@@H](NC(=O)[C@H](Cc1c[nH]c2ccccc12)NC(=O)[C@@H]1CCN(C(=O)[C@@H](N)Cc2c(C)cc(O)cc2C)C1)c1ccccc1	2770	0.406	Dose-dependent effect	–	Dose-dependent effect	0.226	Active	0.00986	98.9	27.3	Active	47.9	Active	inactive	inactive	174	72.1	Active	> 10	17600	Activity (Mus musculus [18]): tde; Activity (Mu-type opioid receptor [19]): tde; Activity (Mus musculus [20]): Dose-dependent effect; ED50 (Mus musculus [20]): 0.000822 µmol/kg
C=C(C(N)=O)[C@@H](NC(=O)[C@H](Cc1c[nH]c2ccccc12)NC(=O)[C@H]1CCN(C(=O)[C@@H](N)Cc2c(C)cc(O)cc2C)C1)c1ccco1	2380	0.962	Dose-dependent effect	0.000109	Dose-dependent effect	0.834	Active	0.0128	98.6	30.4	Active	47.3	Active	inactive	inactive	180	72.2	Active	> 10	14100	Activity (Mus musculus [18]): tde; Activity (Mu-type opioid receptor [19]): tde; Activity (Mus musculus [20]): Dose-dependent effect; ED50 (Mus musculus [20]): 0.00095 µmol/kg
C=C(C(N)=O)[C@@H](NC(=O)[C@H](Cc1c[nH]c2ccccc12)NC(=O)[C@@H]1CCN(C(=O)[C@@H](N)Cc2ccc(O)cc2)C1)c1ccco1	16800	2.91	Dose-dependent effect	0.00853	Dose-dependent effect	1.67	Active	0.165	96.2	2780	–	–	–	–	–	–	–	–	–	–	–
